Laboratory results: patent publication US11236087B2, “Highly active pyrazolo-piperidine substituted indole-2-carboxamides active against the hepatitis B virus (HBV)” (AiCuris GmbH & Co. KG, priority 2017, dated 2022)

Legend:
[1] = tested on: HBV; test: Determination of HBV DNA from the supernatants of HepAD38 cells (anti-HBV activity); type: cell-based, hepatitis B virus; conditions: Hepatitis B virus, 144 h; HBV DNA in HepAD38 supernatant, day 6, qPCR; read-out: Cell Activity (EC50)
How it was run: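 Supernatant viral DNA was measured by LightCycler qPCR, calibrated with pCH-9/3091 plasmid, 6 days after tetracycline-free HepAD38 cultures received half-log serial compound dilutions; untreated and tetracycline-treated cells served as controls; EC50 was fitted by non-linear regression.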

[2] = biological target: T1, HBV core protein (UniProt P03146); test: Biochemical capsid assembly assay (fluorescence quenching); design: species or system hepatitis B virus; conditions: read-out: Assembly Activity (IC50); BODIPY-FL labelled core protein, 300 μM NaCl, read 6 min after start
T1 construct: fused on or other part: BODIPY-FL maleimide label on the C-terminal Cys150
Description: Biochemical Capsid Assembly Assay
The screening for assembly effector activity was done based on a fluorescence quenching assay published by Zlotnick et al. (2007). The C-terminal truncated core protein containing 149 amino acids of the N-terminal assembly domain fused to a unique cysteine residue at position 150 and was expressed in E. coli using the pET expression system (Merck Chemicals, Darmstadt). Purification of core dimer protein was performed using a sequence of size exclusion chromatography steps. In brief, the cell pellet from 1 L BL21 (DE3) Rosetta2 culture expressing the coding sequence of core protein cloned NdeI/XhoI into expression plasmid pET21b was treated for 1 h on ice with a native lysis buffer (Qproteome Bacterial Protein Prep Kit; Qiagen, Hilden). After a centrifugation step the supernatant was precipitated during 2 h stirring on ice with 0.23 g/ml of solid ammonium sulfate. Following further centrifugation the resulting pellet was resolved in buffer A (100 mM Tris, pH 7.5; 100 mM NaCl; 2 mM DTT) and was subsequently loaded onto a buffer A equilibrated CaptoCore 700 column (GE HealthCare, Frankfurt). The column flow through containing the assembled HBV capsid was dialyzed against buffer N (50 mM NaHCO3 pH 9.6; 5 mM DTT) before urea was added to a final concentration of 3M to dissociate the capsid into core dimers for 1.5 h on ice. The protein solution was then loaded onto a 1 L Sephacryl S300 column. After elution with buffer N core dimer containing fractions were identified by SDS-PAGE and subsequently pooled and dialyzed against 50 mM HEPES pH 7.5; […]. To improve the assembly capacity of the purified core dimers a second round of assembly and disassembly starting with the addition of 5 M NaCl and including the size exclusion chromatography steps described above was performed. From the last chromatography step core dimer containing fractions were pooled and stored in aliquots at concentrations between 1.5 to 2.0 mg/ml at −80° C.
Immediately before labelling the core protein was reduced by adding freshly prepared DTT in a final concentration of 20 mM. After 40 min incubation on ice storage buffer and DTT was removed using a Sephadex G-25 column (GE HealthCare, Frankfurt) and 50 mM HEPES, pH 7.5. For labelling 1.6 mg/ml core protein was incubated at 4° C. and darkness overnight with BODIPY-FL maleimide (Invitrogen, Karlsruhe) in a final concentration of 1 mM. After labelling the free dye was removed by an additional desalting step using a Sephadex G-25 column. Labelled core dimers were stored in aliquots at 4° C. In the dimeric state the fluorescence signal of the labelled core protein is high and is quenched during the assembly of the core dimers to high molecular capsid structures. The screening assay was performed in black 384 well microtiter plates in a total assay volume of 10 μl using 50 mM HEPES pH 7.5 and 1.0 to 2.0 μM labelled core protein. Each screening compound was added in 8 different concentrations using a 0.5 log-unit serial dilution starting at a final concentration of 100 μM, 31.6 μM or 10 μM, In any case the DMSO concentration over the entire microtiter plate was 0.5%. The assembly reaction was started by the injection of NaCl to a final concentration of […] which induces the assembly process to approximately 25% of the maximal quenched signal. 6 min after starting the reaction the fluorescence signal was measured using a Clariostar plate reader (BMG Labtech, Ortenberg) with an excitation of 477 nm and an emission of 525 nm. As 100% and 0% assembly control HEPES buffer containing 2.5 M and 0 M NaCl was used. Experiments were performed thrice in triplicates. EC50 values were calculated by non-linear regression analysis using the Graph Pad Prism 6 software (GraphPad Software, La Jolla, USA).

[3] = Cell viability assay (AlamarBlue) in HepAD38 cells; conditions: human

T1 sequence (P03146 whole entry, looked up, the tested form may be a part): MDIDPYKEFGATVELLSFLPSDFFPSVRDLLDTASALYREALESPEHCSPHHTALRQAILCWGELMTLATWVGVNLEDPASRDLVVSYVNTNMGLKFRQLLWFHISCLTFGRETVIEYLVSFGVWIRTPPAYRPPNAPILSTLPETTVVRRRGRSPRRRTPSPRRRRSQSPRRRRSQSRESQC

Row | SMILES | EC50 [1] [µM] | IC50 [2] [µM] | CC50 at 6 days [3] [µM]
1 | CCc1cc(F)cc2[nH]c(C(=O)N3CCc4[nH]nc(C(=O)N(C)CCO)c4C3)cc12 [Example 10, 5-(4-ethyl-6-fluoro-1H-indole-2-carbonyl)-N-(2-hydroxyethyl)-N-methyl-1H,4H,5H,6H,7H-pyrazolo[4,3-c]pyridine-3-carboxamide] | < 1 | < 5 | > 10
2 | CN(CCO)C(=O)c1n[nH]c2c1CN(C(=O)c1cc3c(Cl)cccc3[nH]1)CC2 [Example 58, 5-(4-chloro-1H-indole-2-carbonyl)-N-(2-hydroxyethyl)-N-methyl-1H,4H,5H,6H,7H-pyrazolo[4,3-c]pyridine-3-carboxamide] | < 1 | < 5 | > 100
3 | COCC1(N(C)C(=O)c2n[nH]c3c2CN(C(=O)c2cc4c(C(F)F)cccc4[nH]2)CC3)CC1 [Example 299, 5-[4-(difluoromethyl)-1H-indole-2-carbonyl]-N-[1-(methoxymethyl)cyclopropyl]-N-methyl-1H,4H,5H,6H,7H-pyrazolo[4,3-c]pyridine-3-carboxamide] | < 1 | < 5 | > 10
4 | O=C(c1cc2ccccc2[nH]1)N1CCc2n[nH]c(C(=O)N3CCCCC34CC4)c2C1 [Example 279, 2-(3-{4-azaspiro[2.5]octane-4-carbonyl}-2H,4H,5H,6H,7H-pyrazolo[4,3-c]pyridine-5-carbonyl)-1H-indole] | < 1 | < 5 | > 10
5 | O=C(c1cc2ccccc2[nH]1)N1CCc2[nH]nc(C(=O)N3CCC[C@H]3CO)c2C1 [Example 180, [(2S)-1-[5-(1H-indole-2-carbonyl)-1H,4H,5H,6H,7H-pyrazolo[4,3-c]pyridine-3-carbonyl]pyrrolidin-2-yl]methanol] | 1 to 25 | < 100 | > 10
6 | CON(C)C(=O)c1n[nH]c2c1CN(C(=O)c1cc3c(Cl)cccc3[nH]1)CC2 [Example 113, 5-(4-chloro-1H-indole-2-carbonyl)-N-methoxy-N-methyl-1H,4H,5H,6H,7H-pyrazolo[4,3-c]pyridine-3-carboxamide] | < 1 | < 5 | > 100
7 | CCc1cccc2[nH]c(C(=O)N3CCc4[nH]nc(C(=O)N(C)CCO)c4C3)cc12 [Example 62, 5-(4-ethyl-1H-indole-2-carbonyl)-N-(2-hydroxyethyl)-N-methyl-1H,4H,5H,6H,7H-pyrazolo[4,3-c]pyridine-3-carboxamide] | < 1 | < 5 | > 100
8 | COCC1(N(C)C(=O)c2n[nH]c3c2CN(C(=O)c2cc4c(C)cc(F)cc4[nH]2)CC3)CC1 [Example 269, 5-(6-fluoro-4-methyl-1H-indole-2-carbonyl)-N-[1-(methoxymethyl)cyclopropyl]-N-methyl-1H,4H,5H,6H,7H-pyrazolo[4,3-c]pyridine-3-carboxamide] | < 1 | < 5 | > 10
9 | CNC(C)(C)COC(=O)c1n[nH]c2c1CN(C(=O)c1cc3ccccc3[nH]1)CC2 [Example 31, 2-methyl-2-(methylamino)propyl 5-(1H-indole-2-carbonyl)-1H,4H,5H,6H,7H-pyrazolo[4,3-c]pyridine-3-carboxylate] | 1 to 25 | 5 to 10 | > 100
10 | O=C(c1cc2ccccc2[nH]1)N1CCc2[nH]nc(C(=O)N3CC4COCC4C3)c2C1 (centres unmarked) [Example 153, 2-(3-{hexahydro-1H-furo[3,4-c]pyrrole-5-carbonyl}-1H,4H,5H,6H,7H-pyrazolo[4,3-c]pyridine-5-carbonyl)-1H-indole] | 1 to 25 | < 100 | > 10
11 | O=C(c1cc2ccccc2[nH]1)N1CCc2[nH]nc(C(=O)N3CC(O)C3)c2C1 [Example 40, 1-[5-(1H-indole-2-carbonyl)-1H,4H,5H,6H,7H-pyrazolo[4,3-c]pyridine-3-carbonyl]azetidin-3-ol] | 1 to 25 | < 5 | > 100
12 | CN(C(=O)c1n[nH]c2c1CN(C(=O)c1cc3ccccc3[nH]1)CC2)C(C)(C)CO [Example 143, N-(1-hydroxy-2-methylpropan-2-yl)-5-(1H-indole-2-carbonyl)-N-methyl-1H,4H,5H,6H,7H-pyrazolo[4,3-c]pyridine-3-carboxamide] | 1 to 25 | 5 to 10 | –
13 | COC(=O)C1CCN(C(=O)c2n[nH]c3c2CN(C(=O)c2cc4ccccc4[nH]2)CC3)CC1 [Example 132, methyl 1-[5-(1H-indole-2-carbonyl)-1H,4H,5H,6H,7H-pyrazolo[4,3-c]pyridine-3-carbonyl]piperidine-4-carboxylate] | – | < 5 | > 10
14 | O=C(c1cc2cc(F)ccc2[nH]1)N1CCc2n[nH]c(C3CCC3)c2C1 [Example 394, 2-{3-cyclobutyl-2H,4H,5H,6H,7H-pyrazolo[4,3-c]pyridine-5-carbonyl}-5-fluoro-1H-indole] | < 1 | – | > 10
15 | O=C(c1cc2ccccc2[nH]1)N1CCc2[nH]nc(C(=O)N3CCC4(CCO4)C3)c2C1 (centres unmarked) [Example 182, 2-(3-{1-oxa-6-azaspiro[3.4]octane-6-carbonyl}-1H,4H,5H,6H,7H-pyrazolo[4,3-c]pyridine-5-carbonyl)-1H-indole] | 1 to 25 | – | > 10
16 | CN(C(=O)c1n[nH]c2c1CN(C(=O)c1cc3ccccc3[nH]1)CC2)C1(CCC(N)=O)CC1 [Example 237, N-[1-(2-carbamoylethyl)cyclopropyl]-5-(1H-indole-2-carbonyl)-N-methyl-1H,4H,5H,6H,7H-pyrazolo[4,3-c]pyridine-3-carboxamide] | < 100 | – | > 10
17 | O=C(c1cc2ccccc2[nH]1)N1CCc2[nH]nc(C(=O)N3CCC(F)(F)C3)c2C1 [Example 186, 2-[3-(3,3-difluoropyrrolidine-1-carbonyl)-1H,4H,5H,6H,7H-pyrazolo[4,3-c]pyridine-5-carbonyl]-1H-indole] | < 1 | – | > 10
18 | O=C(c1cc2ccccc2[nH]1)N1CCc2[nH]nc(C(=O)N3CCC4(COC4)C3)c2C1 [Example 183, 2-(3-{2-oxa-6-azaspiro[3.4]octane-6-carbonyl}-1H,4H,5H,6H,7H-pyrazolo[4,3-c]pyridine-5-carbonyl)-1H-indole] | 1 to 25 | – | > 10
19 | CN(C(=O)c1n[nH]c2c1CN(C(=O)c1cc3c(Cl)c(F)ccc3[nH]1)CC2)C1(CO)CC1 [Example 239, 5-(4-chloro-5-fluoro-1H-indole-2-carbonyl)-N-[1-(hydroxymethyl)cyclopropyl]-N-methyl-1H,4H,5H,6H,7H-pyrazolo[4,3-c]pyridine-3-carboxamide] | < 1 | – | > 10
20 | O=C(c1cc2c(F)c(F)ccc2[nH]1)N1CCc2[nH]nc(C(=O)N3CCC(F)(F)C3)c2C1 [Example 231, 2-[3-(3,3-difluoropyrrolidine-1-carbonyl)-1H,4H,5H,6H,7H-pyrazolo[4,3-c]pyridine-5-carbonyl]-4,5-difluoro-1H-indole] | < 1 | – | > 10
21 | O=C(c1cc2ccccc2[nH]1)N1CCc2[nH]nc(S(=O)(=O)N3CC(F)(F)C3)c2C1 [Example 209, 2-{3-[(3,3-difluoroazetidin-1-yl)sulfonyl]-1H,4H,5H,6H,7H-pyrazolo[4,3-c]pyridine-5-carbonyl}-1H-indole] | < 1 | – | > 10
